Patent publication US9776990B2, “Isoindolone derivatives” (AbbVie Inc., priority 2012, dated 2017)
Marks after values point to notes of the source that are not given here.

What was measured:
[1] = test system: Ramos human B cell lymphoma cancer xenograft; test: Xenograft tumor growth inhibition assay, Ramos; type: in vivo, mice; details: 100 mg/kg/day PO
Procedure: (§1) The effect of the compound of Example 40 to inhibit the growth of Ramos, OPM-2, MX-1, MV4-11, and HT1080 xenograft tumors was evaluated. Briefly, 0.5×10^6 human cancer cells (HT1080), 1×10^6 human cancer cells (Ramos), 5×10^6 human cancer cells (OPM-2, MV4-11) or 1:10 tumor brie (MX-1) (in S-MEM (MEM, Suspension, no Calcium, no Glutamine)) (Life Technologies Corporation) were inoculated subcutaneously into the right hind flank of female SCID or SCID-beige (MV4-11, HT1080) mice (Charles Rivers Labs) on study day 0. Compound was formulated in 2% EtOH, 5% Tween-80, 20% PEG-400, 73% HPMC (Ramos, OPM-2 and MX-1) or 5% DMSO, 5% EtOH, 30% PEG400, 60% Phosal 53 (MV4-11, HT1080). Administration of compound was initiated at the time of size match on day 8 (HT1080), day 17 (MX-1), or day 18 (Ramos, MV4-11, OPM-2). The tumors were measured by a pair of calipers twice a week starting at the time of size match and tumor volumes were calculated according to the formula V=L×W^2/2 (V: volume, mm^3; L: length, mm. W: width, m) Tumor volume was measured for the duration of the experiment until the mean tumor volume in each group reached an endpoint of >1000 mm^3.

[2] = test system: FaDu; test: Proliferation panel assay, FaDu; type: cell-based; details: Homo sapiens, 120 h, Head & Neck, 5 days, read-out: Cellular Proliferation EC50
Procedure: (§2) The impact of compounds of the Examples on cancer cell proliferation was determined using the breast cancer cell line MX-1 (ATCC) in a 3-day proliferation assay. MX-1 cells were maintained in RPMI supplemented with 10% FBS at 37 C.° and an atmosphere of 5% CO2. For compound testing, MX-1 cells were plated in 96-well black bottom plates at a density of 5000 cells/well in 90 μl of culture media and incubated at 37° overnight to allow cell adhesion and spreading. Compound dilution series were prepared in DMSO via a 3-fold serial dilution from 3 mM to 0.1 μM. […]
(§3) Luminescence readings from the Cell Titer Glo assay were normalized to the DMSO treated cells and analyzed using the GraphPad Prism software with sigmoidal curve fitting to obtain EC50s. The minimum significant ratio (MSR) was determined to evaluate assay reproducibility (Eastwood et al., (2006) J Biomol Screen, 11: 253-261). The overall MSR was determined to be 2.1 and a moving MSR (last six run MSR overtime) has been <2.
(§4) The compound of Example 40 was tested for its impact on proliferation of a panel of cancer cell line types (with specific cell lines tested) as set out in (Table 2). […] Cell proliferation data were analyzed as described above in the MX-1 proliferation assay to obtain the EC50 for the compounds reported in Table 2.

[3] = test system: DLD-1; test: Proliferation panel assay, DLD-1; type: cell-based; details: Homo sapiens, 120 h; Colon, DLD-1, 5 days; read-out: Cellular Proliferation EC50
Procedure: as §2, §3, §4

[4] = test system: D54MG; test: Proliferation panel assay, D54MG; type: cell-based; details: 120 h, Glioblastoma, 5 days, read-out: Cellular Proliferation EC50
Procedure: as §2, §3, §4

[5] = test system: Ramos; test: Proliferation panel assay, Ramos; type: cell-based; details: Homo sapiens, 120 h, NHL, 5 days, read-out: Cellular Proliferation EC50
Procedure: as §2, §3, §4

[6] = test system: BxPC3FP5; test: Proliferation panel assay, BxPC3FP5; type: cell-based; details: 120 h; Pancreas, BxPC3FP5, 5 days; read-out: Cellular Proliferation EC50
Procedure: as §2, §3, §4

[7] = test system: OPM2; test: Proliferation panel assay, OPM2; type: cell-based; details: Homo sapiens, OPM-2, 120 h; Multiple Myeloma, OPM2, 5 days; read-out: Cellular Proliferation EC50
Procedure: as §2, §3, §4

[8] = test system: OPM-2 human multiple myeloma cancer xenograft; test: Xenograft tumor growth inhibition assay, OPM-2; type: in vivo, mice; details: OPM-2 xenograft
Procedure: as §1

[9] = test system: GEO; test: Proliferation panel assay, GEO; type: cell-based; details: 120 h, Colon, 5 days, read-out: Cellular Proliferation EC50
Procedure: as §2, §3, §4

[10] = test system: Ly18; test: Proliferation panel assay, Ly18; type: cell-based; details: 120 h; NHL, Ly18, 5 days; read-out: Cellular Proliferation EC50
Procedure: as §2, §3, §4

[11] = test system: EJ-1; test: Proliferation panel assay, EJ-1; type: cell-based; details: EJ1, 120 h; Bladder, EJ-1, 5 days; read-out: Cellular Proliferation EC50
Procedure: as §2, §3, §4

[12] = test system: SKM1; test: Proliferation panel assay, SKM1; type: cell-based; details: Homo sapiens, SKM-1, 120 h; AML, SKM1, 5 days; read-out: Cellular Proliferation EC50
Procedure: as §2, §3, §4

[13] = test system: Raji; test: Proliferation panel assay, Raji; type: cell-based; details: Homo sapiens, 120 h, Burkitt lymphoma, 5 days, read-out: Cellular Proliferation EC50
Procedure: as §2, §3, §4

## Cc1[nH]c(-c2cc(NS(C)(=O)=O)ccc2Oc2ccccc2)c2c1C(=O)CCC2 [Example 40, N-[3-(3-methyl-4-oxo-4,5,6,7-tetrahydro-2H-isoindol-1-yl)-4-phenoxyphenyl]methanesulfonamide]
[1]; BID (5on 3off) x 2, based on day 31
  % TGI (tumor growth inhibition): 35*** %
[1]; BID (5on 3off) x 2, endpoint 1000 mm^3
  % TGD (tumor growth delay): 40** %
[1]; QDx14, based on day 31
  % TGI (tumor growth inhibition): 30* %
[1]; QDx14, endpoint 1000 mm^3
  % TGD (tumor growth delay): 40* %
[2]
  EC50: 0.18 µM
[3]
  EC50: 0.45 µM
[4]
  EC50: 0.21 µM
[5]
  EC50: 0.34 µM
[6]
  EC50: 0.07 µM
[7]
  EC50: 0.018 µM
[8]; 10 mg/kg/day PO, BIDx14, based on day 31
  % TGI (tumor growth inhibition): 11%
[8]; 10 mg/kg/day PO, BIDx14, endpoint 1000 mm^3
  % TGD (tumor growth delay): 25%
[8]; 10 mg/kg/day PO, QDx14, based on day 31
  % TGI (tumor growth inhibition): 16%
[8]; 10 mg/kg/day PO, QDx14, endpoint 1000 mm^3
  % TGD (tumor growth delay): 25%
[8]; 30 mg/kg/day PO, BIDx14, based on day 31
  % TGI (tumor growth inhibition): 31* %
[8]; 30 mg/kg/day PO, BIDx14, endpoint 1000 mm^3
  % TGD (tumor growth delay): 88* %
[8]; 30 mg/kg/day PO, QDx14, based on day 31
  % TGI (tumor growth inhibition): 27* %
[8]; 30 mg/kg/day PO, QDx14, endpoint 1000 mm^3
  % TGD (tumor growth delay): 63%
[8]; 100 mg/kg/day PO, BIDx14, based on day 31
  % TGI (tumor growth inhibition): 43** %
[8]; 100 mg/kg/day PO, BIDx14, endpoint 1000 mm^3
  % TGD (tumor growth delay): 175*** %
[8]; 100 mg/kg/day PO, QDx14, based on day 31
  % TGI (tumor growth inhibition): 41** %
[8]; 100 mg/kg/day PO, QDx14, endpoint 1000 mm^3
  % TGD (tumor growth delay): 88*** %
[9]
  EC50: 0.38 µM
[10]
  EC50: 0.37 µM
[11]
  EC50: 0.594 µM
[12]
  EC50: 0.039 µM
[13]
  EC50: 0.036 µM
